According to BindingDB's records for patent US20230285340 (Theravance Biopharma R&D Ip, 2023):
pKi: −log10 of the molar value.

Biological target: Neprilysin/Angiotensin-converting enzyme (Homo sapiens, UniProt P08473+P12821)
Test: Enzyme Inhibition Assays (Assay 1)
Method: The assays were performed in 384-well white opaque plates at 37° C. using the fluorogenic peptide substrates at a concentration of 10 μM in Assay Buffer (NEP: 50 mM HEPES, pH 7.5, 100 mM NaCl, 0.01% polyethylene glycol sorbitan monolaurate (Tween-20), 10 μM ZnSO4; ACE: 50 mM HEPES, pH 7.5, 100 mM NaCl, 0.01% Tween-20, 1 μM ZnSO4). […] Test compounds were added to the enzymes and incubated for 30 minute at 37° C. prior to initiating the reaction by the addition of substrate. Reactions were terminated after 20 minutes of incubation at 37° C. by the addition of glacial acetic acid to a final concentration of 3.6% (v/v). […] Inhibition constants were obtained by nonlinear regression of the data using the equation (GraphPad Software, Inc., San Diego, Calif.)

| SMILES | pKi |
| --- | --- |
| CC(C)OC(=O)C(=O)N[C@H](Cc1ccc(-c2cccc(Cl)c2)cc1)C[C@@H](O)C(=O)O [US20230285340, Example 2G] | 8.00 to 8.90 |
| CC(C)COC(=O)[C@H](O)C[C@@H](Cc1ccc(-c2cccc(Cl)c2)cc1)NC(=O)C(=O)O [US20230285340, Example 2I] | 8.00 to 8.90 |
| CC(C)OC(=O)[C@H](O)C[C@@H](Cc1ccc(-c2cccc(Cl)c2)cc1)NC(=O)C(=O)O [US20230285340, Example 2J] | 7.00 to 7.90 |
| O=C(O)C(=O)N[C@H](Cc1ccc(-c2ccccc2)cc1Cl)C[C@@H](O)C(=O)O [US20230285340, Example 4] | 8.00 to 8.90 |
| C[C@@](CO)(C[C@@H](Cc1ccc(-c2ccccc2)cc1)NC(=O)C(=O)O)C(=O)O [US20230285340, Example 9A] | 8.00 to 8.90 |
| C[C@@](CO)(C[C@@H](Cc1ccc(-c2cccc(F)c2)cc1)NC(=O)C(=O)O)C(=O)O [US20230285340, Example 10] | 8.00 to 8.90 |
| CC(O)(CN(Cc1ccc(-c2ccccc2)cc1)NC(=O)C(=O)O)C(=O)O (stereo unspecified) [US20230285340, Example 12] | 7.00 to 7.90 |
| O=C(O)C(=O)NN(Cc1ccc(-c2cccc(Cl)c2)cc1)C[C@@H](O)C(=O)O [US20230285340, Example 13] | 8.00 to 8.90 |
| CCOC(=O)C(=O)NN(Cc1ccc(-c2cc(Cl)ccc2F)cc1)C[C@@H](O)C(=O)O [US20230285340, Example 14F] | 8.00 to 8.90 |
| CC(C)(c1ccc(-c2ccccc2)cc1)[C@H](C[C@@H](O)C(=O)O)NC(=O)C(=O)O [US20230285340, Example 15] | 7.00 to 7.90 |
| CC(C)(c1ccc(-c2ccccc2)cc1)[C@H](C[C@@H](CO)C(=O)O)NC(=O)C(=O)O [US20230285340, Example 16] | 8.00 to 8.90 |
